Experimental findings from PMC5100313, “A new tool for the chemical genetic investigation of the Plasmodium falciparum Pfnek-2 NIMA-related kinase” (Malaria Journal, 2016) are described below.

This test has as its target T1, Pfnek-2(V24C) (Plasmodium falciparum, UniProt C0H4G2, V24C).
T1 construct: gene PF3D7_0525900
T1 sequence (C0H4G2 1-286 V24C): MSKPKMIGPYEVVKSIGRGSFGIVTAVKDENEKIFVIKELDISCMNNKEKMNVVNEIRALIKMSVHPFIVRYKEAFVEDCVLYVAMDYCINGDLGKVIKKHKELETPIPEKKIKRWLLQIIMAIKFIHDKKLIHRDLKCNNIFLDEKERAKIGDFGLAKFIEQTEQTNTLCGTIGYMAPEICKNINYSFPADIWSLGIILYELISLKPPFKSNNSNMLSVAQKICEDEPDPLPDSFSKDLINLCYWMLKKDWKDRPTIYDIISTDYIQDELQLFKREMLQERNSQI
The experiment in a line: in vitro […]-ATP kinase assay (MBP substrate), washout, intact-protein LC-MS (mass shift […] Da). It is filed as biochemical.

As usually defined, the IC50 is the midpoint of a concentration-inhibition curve.

`C#Cc1nc(Nc2ccc(S(N)(=O)=O)cc2)nc2[nH]cnc12` [NCL-00016066, 4-(6-ethynyl-9H-purin-2-ylamino) benzene sulfonamide]: the IC50 was found to be 501 nM.
